{
  "source": "patent US9169254B2",
  "about": "“Spiroimidazolone derivative” (Chugai Seiyaku Kabushiki Kaisha, priority 2009, dated 2015)",
  "data": [
    {"biological_target": "T1, human PTH1 receptor (Homo sapiens, UniProt Q03431)", "T1 sequence (Q03431 27-593)": "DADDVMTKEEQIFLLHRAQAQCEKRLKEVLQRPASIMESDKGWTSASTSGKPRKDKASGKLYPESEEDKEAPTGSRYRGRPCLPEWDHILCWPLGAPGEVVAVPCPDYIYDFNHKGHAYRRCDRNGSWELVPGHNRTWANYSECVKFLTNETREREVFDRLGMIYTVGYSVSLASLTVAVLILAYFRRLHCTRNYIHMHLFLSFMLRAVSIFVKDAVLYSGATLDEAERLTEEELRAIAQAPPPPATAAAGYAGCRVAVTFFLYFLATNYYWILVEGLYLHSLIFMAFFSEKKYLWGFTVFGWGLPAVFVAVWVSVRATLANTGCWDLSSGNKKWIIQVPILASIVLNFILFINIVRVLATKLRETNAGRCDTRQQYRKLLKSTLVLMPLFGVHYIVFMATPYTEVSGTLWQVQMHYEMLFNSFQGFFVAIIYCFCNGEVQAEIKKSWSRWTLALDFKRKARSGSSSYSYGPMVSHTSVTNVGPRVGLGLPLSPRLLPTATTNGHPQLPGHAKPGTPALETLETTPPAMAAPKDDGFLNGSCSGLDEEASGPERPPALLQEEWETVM", "assay": "In vitro cAMP signal activity in HKRK-B7 cells (LLC-PK1 cells overexpressing the human PTH1 receptor)", "format": "cell-based", "conditions": "HKRK-B7 cells; compound at 1×10^−3 M; cAMP produced as percentage of that produced by hPTH(1-34) at 100 nM", "units": {"cAMP production activity (%)": "%"}, "values": [
      {"smiles": "Cc1cc(N2C(=O)CCC2CO)ccc1/C=C/S(=O)(=O)N1CCC2(CC1)N=C(c1cccc(C(F)(F)F)c1)NC2=O", "note": "(stereo in doubt) [Compound 221, 8-{(E)-2-[4-((R)-2-hydroxymethyl-5-oxo-pyrrolidin-1-yl)-2-methyl-phenyl]-ethenesulfonyl}-2-(3-trifluoromethyl-phenyl)-1,3,8-triaza-spiro[4.5]dec-1-en-4-one]", "cAMP production activity (%)": 103},
      {"smiles": "O=C1NC(C2CCCCC2)=NC12CCN(S(=O)(=O)c1cccc(Cl)c1)CC2", "note": "[Compound 1, 8-(3-Chloro-benzenesulfonyl)-2-cyclohexyl-1,3,8-triaza-spiro[4.5]dec-1-en-4-one]", "cAMP production activity (%)": 42},
      {"smiles": "O=C1NC(c2ccncc2)=NC12CCN(S(=O)(=O)c1cccc(Cl)c1)CC2", "note": "[Compound 2, 8-(3-chloro-benzenesulfonyl)-2-pyridin-4-yl-1,3,8-triaza-spiro[4.5]dec-1-en-4-one]", "cAMP production activity (%)": 1.0},
      {"smiles": "CCCC1=NC2(CCN(S(=O)(=O)c3cccc(Cl)c3)CC2)C(=O)N1", "note": "[Compound 3, 8-(3-chloro-benzenesulfonyl)-2-propyl-1,3,8-triaza-spiro[4.5]dec-1-en-4-one]", "cAMP production activity (%)": 20},
      {"smiles": "CC(C)C1=NC2(CCN(S(=O)(=O)c3cccc(Cl)c3)CC2)C(=O)N1", "note": "[Compound 4, 8-(3-chloro-benzenesulfonyl)-2-isopropyl-1,3,8-triaza-spiro[4.5]dec-1-en-4-one]", "cAMP production activity (%)": 11},
      {"smiles": "COc1cccc(C2=NC3(CCN(S(=O)(=O)c4cccc(Cl)c4)CC3)C(=O)N2)c1", "note": "[Compound 5, 8-(3-chloro-benzenesulfonyl)-2-(3-methoxy-phenyl)-1,3,8-triaza-spiro[4.5]dec-1-en-4-one]", "cAMP production activity (%)": 2.5},
      {"smiles": "O=C1NC(c2cccc(Cl)c2)=NC12CCN(S(=O)(=O)c1cccc(Cl)c1)CC2", "note": "[Compound 6, 8-(3-chloro-benzenesulfonyl)-2-(3-chloro-phenyl)-1,3,8-triaza-spiro[4.5]dec-1-en-4-one]", "cAMP production activity (%)": 4.2},
      {"smiles": "O=C1NC(Cc2ccccc2)=NC12CCN(S(=O)(=O)c1cccc(Cl)c1)CC2", "note": "[Compound 7, 2-benzyl-8-(3-chloro-benzenesulfonyl)-1,3,8-triaza-spiro[4.5]dec-1-en-4-one]", "cAMP production activity (%)": 13},
      {"smiles": "CC1=NC2(CCN(S(=O)(=O)c3cccc(Cl)c3)CC2)C(=O)N1", "note": "[Compound 8, 8-(3-chloro-benzenesulfonyl)-2-methyl-1,3,8-triaza-spiro[4.5]dec-1-en-4-one]", "cAMP production activity (%)": 2.6},
      {"smiles": "O=C1NC(c2ccccc2-c2ccccc2)=NC12CCN(S(=O)(=O)c1cccc(Cl)c1)CC2", "note": "[Compound 10, 2-biphenyl-2-yl-8-(3-chloro-benzenesulfonyl)-1,3,8-triaza-spiro[4.5]dec-1-en-4-one]", "cAMP production activity (%)": 2.4},
      {"smiles": "Cc1ccccc1C1=NC2(CCN(S(=O)(=O)c3cccc(Cl)c3)CC2)C(=O)N1", "note": "[Compound 11, 8-(3-chloro-benzenesulfonyl)-2-o-tolyl-1,3,8-triaza-spiro[4.5]dec-1-en-4-one]", "cAMP production activity (%)": 16},
      {"smiles": "O=C1NC(c2ccc(C(F)(F)F)cc2)=NC12CCN(S(=O)(=O)c1cccc(Cl)c1)CC2", "note": "[Compound 12, 8-(3-chloro-benzenesulfonyl)-2-(4-trifluoromethyl-phenyl)-1,3,8-triaza-spiro[4.5]dec-1-en-4-one]", "cAMP production activity (%)": 12},
      {"smiles": "O=C1NC(c2cccc(OC(F)(F)F)c2)=NC12CCN(S(=O)(=O)c1cccc(Cl)c1)CC2", "note": "[Compound 13, 8-(3-chloro-benzenesulfonyl)-2-(3-trifluoromethoxy-phenyl)-1,3,8-triaza-spiro[4.5]dec-1-en-4-one]", "cAMP production activity (%)": 31},
      {"smiles": "CC1(C2=NC3(CCN(S(=O)(=O)c4cccc(Cl)c4)CC3)C(=O)N2)CCCCC1", "note": "[Compound 14, 8-(3-chloro-benzenesulfonyl)-2-(1-methyl-cyclohexyl)-1,3,8-triaza-spiro[4.5]dec-1-en-4-one]", "cAMP production activity (%)": 38},
      {"smiles": "CC(C)(C)C1=NC2(CCN(S(=O)(=O)c3cccc(Cl)c3)CC2)C(=O)N1", "note": "[Compound 16, 2-tert-butyl-8-(3-chloro-benzenesulfonyl)-1,3,8-triaza-spiro[4.5]dec-1-en-4-one]", "cAMP production activity (%)": 41},
      {"smiles": "O=C1NC(C2CCC(C(F)(F)F)CC2)=NC12CCN(S(=O)(=O)c1cccc(Cl)c1)CC2", "note": "(stereo not shown) [Compound 17, 8-(3-chloro-benzenesulfonyl)-2-(4-trifluoromethyl-cyclohexyl)-1,3,8-triaza-spiro[4.5]dec-1-en-4-one]", "cAMP production activity (%)": 39},
      {"smiles": "CC(C)(C)OC(=O)N1CCCC(C2=NC3(CCN(S(=O)(=O)c4cccc(Cl)c4)CC3)C(=O)N2)C1", "note": "(stereo not shown) [Compound 18, 3-[8-(3-chloro-benzenesulfonyl)-4-oxo-1,3,8-triaza-spiro[4.5]dec-1-en-2-yl]-piperidine-1-carboxylic acid tert-butyl ester]", "cAMP production activity (%)": 44},
      {"smiles": "CC1CCCC(C2=NC3(CCN(S(=O)(=O)c4cccc(Cl)c4)CC3)C(=O)N2)C1", "note": "(stereo not shown) [Compound 19, 8-(3-chloro-benzenesulfonyl)-2-(3-methyl-cyclohexyl)-1,3,8-triaza-spiro[4.5]dec-1-en-4-one]", "cAMP production activity (%)": 35},
      {"smiles": "CC1CCCCC1C1=NC2(CCN(S(=O)(=O)c3cccc(Cl)c3)CC2)C(=O)N1", "note": "(stereo not shown) [Compound 20, 8-(3-chloro-benzenesulfonyl)-2-(2-methyl-cyclohexyl)-1,3,8-triaza-spiro[4.5]dec-1-en-4-one]", "cAMP production activity (%)": 38},
      {"smiles": "CCC[C@H]1CC[C@H](C2=NC3(CCN(S(=O)(=O)c4cccc(Cl)c4)CC3)C(=O)N2)CC1", "note": "[Compound 21, 8-(3-chloro-benzenesulfonyl)-2-(4-propyl-cyclohexyl)-1,3,8-triaza-spiro[4.5]dec-1-en-4-one]", "cAMP production activity (%)": 42},
      {"smiles": "O=C1NC([C@H]2C[C@H]3CC[C@@H]2C3)=NC12CCN(S(=O)(=O)c1cccc(Cl)c1)CC2", "note": "[Compound 22, 2-(1R,2S,4S)-bicyclo[2.2.1]hept-2-yl-8-(3-chloro-benzenesulfonyl)-1,3,8-triaza-spiro[4.5]dec-1-en-4-one]", "cAMP production activity (%)": 43},
      {"smiles": "O=C1NC([C@@H]2C[C@H]3CC[C@@H]2C3)=NC12CCN(S(=O)(=O)c1cccc(Cl)c1)CC2", "note": "[Compound 23, 2-(1R,2R,4S)-bicyclo[2.2.1]hept-2-yl-8-(3-chloro-benzenesulfonyl)-1,3,8-triaza-spiro[4.5]dec-1-en-4-one]", "cAMP production activity (%)": 41},
      {"smiles": "CO[C@H]1CC[C@@H](C2=NC3(CCN(S(=O)(=O)c4cccc(Cl)c4)CC3)C(=O)N2)CC1", "note": "[Compound 24, 8-(3-chloro-benzenesulfonyl)-2-(4-methoxy-cyclohexyl)-1,3,8-triaza-spiro[4.5]dec-1-en-4-one]", "cAMP production activity (%)": 18},
      {"smiles": "CO[C@H]1CC[C@H](C2=NC3(CCN(S(=O)(=O)c4cccc(Cl)c4)CC3)C(=O)N2)CC1", "note": "[Compound 25, 8-(3-chloro-benzenesulfonyl)-2-(4-methoxy-cyclohexyl)-1,3,8-triaza-spiro[4.5]dec-1-en-4-one]", "cAMP production activity (%)": 18}
    ]},
    {"biological_target": "T1, human PTH1 receptor", "assay": "In vitro cAMP signal activity in HKRK-B7 cells (LLC-PK1 cells overexpressing the human PTH1 receptor)", "format": "cell-based", "conditions": "HKRK-B7 cells; compound at 3×10^−4 M (* Compound 15); cAMP produced as percentage of that produced by hPTH(1-34) at 100 nM", "values": [
      {"smiles": "CC(=O)N1CCC(C2=NC3(CCN(S(=O)(=O)c4cccc(Cl)c4)CC3)C(=O)N2)CC1", "note": "[Compound 15, 2-(1-acetyl-piperidin-4-yl)-8-(3-chloro-benzenesulfonyl)-1,3,8-triaza-spiro[4.5]dec-1-en-4-one]", "cAMP production activity (%)": "1.8* %"}
    ]}
  ]
}
